Experimental data taken from patent US7754866B2 (Arena Pharmaceuticals, Inc., priority 1997, dated 2010).
Where a chain is given by its changes, count along the chain named. Read-outs that look alike come from different tables or passages of the source.

What was measured:
[1] = target: T1, wild type human 5HT2A receptor (Homo sapiens, UniProt P28223); experiment: Competitive binding assay, [3H]LSD, WT 5HT2A
T1 construct: expressed in transfected cells; host or cells: COS-7 cells, pCMV vector

[2] = target: T2, mutated human 5HT2C receptor (AP-1) (Homo sapiens, UniProt P28335, S310K); experiment: Competitive binding assay, [3H]mesulergine, AP-1; settings: Competitive Binding AP-1 ([3H]mesulergine) IC50 Value (μM), 1 nM [3H]mesulergine, COS7 membranes
T2 construct: expressed in transfected cells; host or cells: COS7 cells, pCMV vector, transient
T2 sequence (P28335 33-458 S310K): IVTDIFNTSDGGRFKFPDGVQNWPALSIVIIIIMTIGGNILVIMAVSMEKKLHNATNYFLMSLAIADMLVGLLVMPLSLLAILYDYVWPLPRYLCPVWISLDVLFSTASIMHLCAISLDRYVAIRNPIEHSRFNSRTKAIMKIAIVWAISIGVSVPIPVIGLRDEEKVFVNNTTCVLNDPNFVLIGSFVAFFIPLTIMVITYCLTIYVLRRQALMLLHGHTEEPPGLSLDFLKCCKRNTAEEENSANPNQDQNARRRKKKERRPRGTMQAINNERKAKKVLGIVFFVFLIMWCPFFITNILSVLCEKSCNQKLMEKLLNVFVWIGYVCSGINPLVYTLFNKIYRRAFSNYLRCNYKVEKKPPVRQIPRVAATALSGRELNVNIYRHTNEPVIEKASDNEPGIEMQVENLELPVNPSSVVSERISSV

[3] = tested on: dopamine D2 receptors (caudate nucleus); experiment: I125-LSD displacement from rat brain sections, caudate nucleus; type: binding, Sprague-Dawley rats; settings: 1 micromolar compound, 1 nanomolar I125-LSD, autoradiography
[4] = target: T3, human mutated 5HT2A receptor, AP-3 (Homo sapiens, UniProt P28223, T25N); experiment: Inositol phosphate accumulation assay, AP-3; type: cell-based;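 also: transfected 293 cells prelabeled with 3H-inositol, exposed to compound 120 min at 37 °C with LiCl and pargyline, inositol trisphosphates isolated by anion exchange and counted by scintillation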
T3 construct: Inositol Phosphate Accumulation AP-3 IC50 Value (nM); other: several concentrations; IP3 % of Control; other: one concentration of 10 μM, triplicate; control without test compound
T3 sequence (P28223 whole entry T25N, looked up): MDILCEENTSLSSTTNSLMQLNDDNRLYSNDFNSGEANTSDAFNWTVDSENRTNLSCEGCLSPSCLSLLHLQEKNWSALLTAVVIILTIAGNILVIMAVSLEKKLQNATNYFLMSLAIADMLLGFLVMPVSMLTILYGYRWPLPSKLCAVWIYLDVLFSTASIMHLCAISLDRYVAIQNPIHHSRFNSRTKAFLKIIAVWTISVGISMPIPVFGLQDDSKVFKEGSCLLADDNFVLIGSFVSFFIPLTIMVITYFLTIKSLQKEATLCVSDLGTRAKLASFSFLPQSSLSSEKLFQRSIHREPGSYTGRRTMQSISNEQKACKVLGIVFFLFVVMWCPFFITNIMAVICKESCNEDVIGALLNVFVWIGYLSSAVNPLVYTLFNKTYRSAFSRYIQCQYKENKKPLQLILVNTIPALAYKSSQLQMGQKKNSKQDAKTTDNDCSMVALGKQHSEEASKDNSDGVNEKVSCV

[5] = target: T4, 5HT2A receptors (fourth layer of the cerebral cortex) (Rattus norvegicus, UniProt P14842); experiment: I125-LSD displacement from rat brain sections, cerebral cortex; type: binding, Sprague-Dawley rats; settings: 1 micromolar compound, 1 nanomolar I125-LSD, autoradiography
T4 construct: from tissue; host or cells: horizontal sections of Sprague-Dawley rat brain, cerebral cortex
T4 sequence (P14842 whole entry): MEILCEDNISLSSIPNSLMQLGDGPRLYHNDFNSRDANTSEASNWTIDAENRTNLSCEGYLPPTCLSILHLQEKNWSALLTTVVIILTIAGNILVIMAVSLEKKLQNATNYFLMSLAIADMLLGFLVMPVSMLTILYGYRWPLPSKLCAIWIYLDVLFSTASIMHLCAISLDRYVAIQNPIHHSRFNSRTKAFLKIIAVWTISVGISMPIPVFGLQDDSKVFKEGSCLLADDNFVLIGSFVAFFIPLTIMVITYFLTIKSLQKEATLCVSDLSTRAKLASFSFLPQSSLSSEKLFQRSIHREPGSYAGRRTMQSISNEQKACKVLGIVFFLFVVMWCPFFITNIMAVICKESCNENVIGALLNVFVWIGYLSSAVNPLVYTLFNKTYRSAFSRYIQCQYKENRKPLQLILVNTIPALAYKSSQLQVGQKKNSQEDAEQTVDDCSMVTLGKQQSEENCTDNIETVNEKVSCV

[6] = target: T5, human mutated 5HT2A receptor, AP-3 (Homo sapiens, UniProt P28223, T25N, form not given); experiment: Inositol phosphate accumulation assay, AP-3; type: cell-based; settings: summary statement;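 also: transfected 293 cells prelabeled with 3H-inositol, exposed to compound 120 min at 37 °C with LiCl and pargyline, inositol trisphosphates isolated by anion exchange and counted by scintillation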
T5 construct: rows headed: inverse agonist activity at the human 5HT2A receptor; other: summary statement; fused on or other part: Possibly intracellular loop 3 and cytoplasmic tail of human 5-HT2C (P28335), if the statement rests on AP-3
T5 sequence (P28223 whole entry T25N, looked up, form open, the tested form may be a part): as the sequence (P28223 whole entry T25N, looked up) above

[7] = tested on: amphetamine-stimulated locomotion; experiment: Amphetamine-stimulated locomotor activity; type: in vivo, Sprague-Dawley rats; settings: rats, s.c. 0.1, 1.0, 5.0 mg/kg; with exception of the highest dose (10 mg/kg); d-amphetamine sulfate 1.0 mg/kg
Description: A 5HT2A receptor antagonist or inverse agonist is expected to decrease amphetamine-stimulated locomotion without affecting baseline locomotion See, for example, Soresnon, et al, 266(2) J. Pharmacol. Exp. Ther. 684 (1993). […] For the following study, the following parameters and protocol were utilized:
Adult male Sprague-Dawley rats were utilized for these studies. Animals were housed in groups of 2-3 in hanging plastic cages with food and water available at all times. Animals were weighed and handled for at least one day prior to surgery and throughout the studies. For these studies, Vehicle consisted of 90% ethanol (100%) and 10% water.
A San Diego Instruments Flex Field apparatus was used to quantify baseline and amphetamine-stimulated locomotor activity. This apparatus consists of four 16″×16″ clear plastic open fields. Photocell arrays (16 in each dimension) interfaced with a personal computer to automatically quantify activity. Several measures of activity can be assessed with the apparatus, including total photocell beam breaks. Animals (vehicle control and Compound treated) were injected s.c. 30 minutes prior to initiation of analysis. Following this 30 minute period, animals were placed individually into an open field and baseline activity was assessed for 30 minutes (habituation phase). […]

[8] = target: T6, constitutively active mutant human 5HT2C receptor AP-1 (Homo sapiens, UniProt P28335, S310K); experiment: [35S]GTPγS binding assay with membranes of COS7 cells expressing AP-1; type: biochemical
T6 construct: expressed in transfected cells; host or cells: COS7 cells, pCMV vector, transient
T6 sequence (P28335 33-458 S310K): T2 sequence (P28335 33-458 S310K)

[9] = target: T7, endogenous human 5-HT2C receptor (Homo sapiens, UniProt P28335)
T7 sequence (P28335 33-458): T2 sequence (P28335 33-458 S310K) with K278S

[10] = Inositol Phosphate Accumulation AP-3 IC50 Value (μM)
[11] = competitive binding using LSD, read-out: WT 5HT2A LSD IC50
[12] = several concentrations, read-out: IP3 AP-3 IC50
[13] = 12.5 μg COS7 membranes expressing AP-1, 1 μM GDP, eight concentrations in triplicate, read-out: IC50 (nM) in GTP-γ-[35S] Assay

T1 sequence (P28223 whole entry T25N/H452Y): as the sequence (P28223 whole entry T25N, looked up) above, with H452Y counted along it

COc1ccc(OC(=O)Nc2cccc(-c3nn(C)cc3Br)c2)cc1 [Compound 116100, N-[3-(4-bromo-1-methylpyrazol-3-yl)phenyl][4-methoxyphenoxy]carboxamide]
IC50 [1]: < 1 nM
IC50 [2]: 1.8 µM
displacement of I125-LSD from the caudate (dopamine D2) [3]: not the caudate
IC50 [4, 10]: 0.0003 µM
melting point: 140.3 to 141.8 °C
displacement of I125-LSD from the cortex (5HT2A) [5]: selectively displace

Cn1cc(Br)c(-c2cccc(NC(=O)c3ccc(OC(F)(F)F)cc3)c2)n1 [Compound 116101, N-[3-(4-bromo-1-methylpyrazol-3-yl)phenyl][4-trifluoromethoxyphenyl]carboxamide]
melting point: 138.6 to 139.6 °C

Cn1cc(Br)c(-c2cccc(NC(=O)c3cccs3)c2)n1 [Compound 116102, N-[3-(4-bromo-1-methylpyrazol-3-yl)phenyl][2-thienyl]carboxamide]
IC50 [2]: 2.8 µM
inverse agonist activity at the human 5HT2A receptor [6]: potent inverse agonist
amphetamine-stimulated locomotion (photobeam breaks) [7]: decrease
melting point: 127.8 to 128.6 °C

Cn1cc(Br)c(-c2cccc(NC(=O)NCc3ccc(OC(F)(F)F)cc3)c2)n1 [Compound 116115]
IC50 [2]: 1.2 µM
melting point: 144.6 to 145.8 °C

Cn1cc(Br)c(-c2cccc(NC(=O)c3ccc(Cl)cc3)c2)n1 [Compound 116120, N-[3-(4-bromo-1-methylpyrazol-3-yl)phenyl][4-chlorophenyl]carboxamide]
IC50 [2]: 1.2 µM
melting point: 184.4 to 184.8 °C

Cn1cc(Br)c(-c2cccc(NC(=O)NCc3ccc(F)cc3)c2)n1 [Compound 116182, N-[3-(4-bromo-1-methylpyrazol-3-yl)phenyl]-[{(4-fluorophenyl)methyl}amino]carboxamide]
IC50 [1, 11]: 132 nM
IC50 [4, 12]: 0.089 µM

Cn1cc(Br)c(-c2cccc(NC(=O)OC(C)(C)C)c2)n1 [Compound 116192]
IC50 [1]: 14 nM
IC50 [4, 10]: 0.057 µM

COc1ccc(CCNC(=O)Nc2cccc(-c3nn(C)cc3Br)c2)cc1 [Compound 116194, N-[3-(4-bromo-1-methylpyrazol-3-yl)phenyl][{2-(4-methoxyphenyl)ethyl}amino]carboxamide]
IC50 [1, 11]: 61 nM
IC50 [4, 12]: 0.032 µM

CSc1ccc2c(c1)C(N1CCN(C)CC1)Cc1ccccc1S2 (centres unmarked) [Methiothepin]
IC50 [8, 13]: 20.4 nM

CC[C@@H](CO)NC(=O)[C@@H]1C=C2c3cccc4c3c(cn4C)C[C@H]2N(C)C1 [Methysergide]
IC50 [8]: 6.1 nM

Clc1ccc2c(c1)N=C(N1CCNCC1)c1ccccc1N2 [Normethylclozapin]
IC50 [8, 13]: 21.4 nM

Cc1nc2sccn2c(=O)c1CCN1CCC(=C(c2ccc(F)cc2)c2ccc(F)cc2)CC1 [Ritanserin]
IC50 ([8]; read-out: IC50 (nM) in GTP-γ-[35S] Assay): 19.4 nM

CN1CCN2c3ccccc3Cc3ccccc3C2C1 (centres unmarked) [mianserin]
effect on basal constitutive binding of [35S]GTPγS [9]: partial inverse agonist
inhibition of serotonin-stimulated [35S]GTPγS binding ([9]; 30 μM): completely inhibited

O=C(CCCN1CCC2(CC1)C(=O)NCN2c1ccccc1)c1ccc(F)cc1 [spiperone, reference compound]
displacement of I125-LSD from the caudate (dopamine D2) [3]: displaces
displacement of I125-LSD from the cortex (5HT2A) [5]: displaces
